Reference: patent US12668646B2, “Cross-linking compounds and methods of use thereof” (North Carolina State University, priority 2019, dated 2026)
Values joined by “and” are separate entries in the source; they are usually repeats but may differ in a detail not shown here. Equal values may be shown once.

Columns and labels:
tritosomes = assay: Indigoid dye formation with tritosomes; type: biochemical
Description: The results from the glucosidase survey prompted several further experiments. First, a parallel set of studies was carried out with inclusion of several oxidants commonly employed in histochemical studies, given that the indigoid dye forming process requires the presence of an oxidant. […] The activity of the β-glucosidase was affected only slightly in the presence of a non-ionic detergent. To verify that the results observed in Table 1 were reliable, a 5-mg scale reaction of 33 was carried out to isolate indigo 43, which was obtained in 66% yield (Scheme 7). The 66% isolated yield corresponded well with the enzymatic yield of […] (Table 1, entry 15).
General methods. β-Glucosidase from almonds (lyophilized powder, ≥2 units/mg solid) and peroxidase from horseradish were purchased from Sigma-Aldrich. β-Glucosidase from Agrobacterium sp. (recombinant, suspension in 3.2 M (NH4)2SO4) was purchased from Megazyme; the concentration in solution was determined by absorption spectroscopy with E^0.1%=2.20 cm^−1 at 280 nm.^37 Tritosomes were purchased from XenoTech. Rat liver homogenate was purchased from MP Biomedicals.

[1] = system: β-glucosidase from almonds; assay: Indigogenic reaction with β-glucosidase from almonds; type: biochemical
[2] = molecular target: T1, β-glucosidase from Agrobacterium (Agrobacterium sp., UniProt P12614); assay: Indigogenic reaction with β-glucosidase from Agrobacterium; type: biochemical; settings: for Yield of indigoid dye: 33 100 μM, enzyme 200 nM; for Yield (%) β-glucosidase from Agrobacterium: as E4 but ϵ = 2.6 × 10^4 M^−1 cm^−1 measured for 43
T1 construct: purchased Megazyme
T1 sequence (P12614 1-459): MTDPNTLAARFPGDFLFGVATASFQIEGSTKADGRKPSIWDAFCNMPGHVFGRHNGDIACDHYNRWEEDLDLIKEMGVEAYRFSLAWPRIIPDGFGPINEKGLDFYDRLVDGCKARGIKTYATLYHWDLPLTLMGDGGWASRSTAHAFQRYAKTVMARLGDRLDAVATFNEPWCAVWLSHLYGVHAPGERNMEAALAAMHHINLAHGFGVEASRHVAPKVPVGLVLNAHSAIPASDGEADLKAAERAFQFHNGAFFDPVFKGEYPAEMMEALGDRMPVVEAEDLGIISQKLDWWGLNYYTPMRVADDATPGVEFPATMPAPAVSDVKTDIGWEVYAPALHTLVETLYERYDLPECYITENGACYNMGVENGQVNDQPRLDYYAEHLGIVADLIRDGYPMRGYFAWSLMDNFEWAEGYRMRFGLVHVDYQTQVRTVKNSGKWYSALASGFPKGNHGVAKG
Description: Next, the β-glucosidase from Agrobacterium sp. was investigated as the trigger enzyme for indigoid dye formation. […] The reaction was carried out using the enzyme (200 nM) and indoxyl-glucoside 33 (100 μM) in phosphate buffer (pH 4-9, containing 2% DMF) at 37° C. […] Note that with 200 nM enzyme and 100 μM substrate, complete reaction requires 500 turnovers of each enzyme.
Reactions with β-glucosidase from Agrobacterium. An indoxyl compound in DMF (2 μL, 5 mM) and β-glucosidase from Agrobacterium in 10 mM phosphate buffer [2 μL, 10 μM, pH 7.0, containing 50 mM NaCl and 0.6 M (NH4)2SO4] were mixed with 50 mM phosphate buffer (96 μL, pH 7.0). The reaction mixture was incubated at 37° C. for 2 h and then centrifuged for 3 min. Any precipitate was separated from the supernatant and dissolved in DMF (200 μL). The resulting solution was analyzed by absorption spectroscopy. The experiment was repeated three times.

rat liver homogenate = assay: Indigoid-dye formation in rat liver homogenate; type: biochemical; settings: as E7 but ϵ = 2.6 × 10^4 M^−1 cm^−1 measured for 43
Description: Finally, indigoid-dye formation was carried out in rat liver homogenate (Table 1, rightmost column).
Reactions in rat liver homogenate. An indoxyl compound in DMF (5 μL, 20 mM) was mixed with rat liver homogenate (95 μL). The reaction mixture was incubated at 37° C. for 24 h. After allowing to cool to room temperature, the reaction mixture was diluted with DMF (900 μL). The mixture was heated at 70° C. for 2 min and then centrifuged for 2 min. The supernatant was separated from any precipitate. This extraction procedure was repeated two or three times with DMF (100-500 μL). The combined supernatant (1500-1800 μL) was analyzed by absorption spectroscopy.

[3] = molecular target: T2, β-glucosidase from Agrobacterium plus rat liver homogenate (Agrobacterium sp., UniProt P12614); assay: Reaction with β-glucosidase from Agrobacterium in rat liver homogenate; type: biochemical; settings: 33 100 μM, enzyme 200 nM, 2% DMF, 37° C., 4 h; ϵ = 2.6 × 10^4 M^−1 cm^−1
T2 construct: purchased Megazyme
T2 sequence (P12614 1-459): T1 sequence (P12614 1-459)
Description: Finally, indigoid-dye formation was carried out in rat liver homogenate (Table 1, rightmost column). Good yields were obtained in the case of 42 (65%, entry 4) and 27 (50%, entry 13). […] However, when β-glucosidase from Agrobacterium (200 nM) was present in rat liver homogenate, the indigoid dye was obtained in 81% yield (entry 15).
Reaction of 33 with β-glucosidase from Agrobacterium in rat liver homogenate. A DMF solution of 33 (2 μL, 5 mM) and β-glucosidase from Agrobacterium in 10 mM phosphate buffer [2 μL, 10 μM, pH 7.0, containing 50 mM NaCl and 0.6 M (NH4)2SO4] were mixed with rat liver homogenate (96 μL). The reaction mixture was incubated at 37° C. for 4 h and then centrifuged for 3 min. Any precipitate was separated from the supernatant and then suspended in DMF (200 μL). The suspension was centrifuged for 3 min. The supernatant was analyzed by absorption spectroscopy.

[4] = Solubility in aqueous buffer; type: physicochemical; settings: 100 mM phosphate buffer (pH 7.4, containing 100 mM NaCl), room temperature
Source text: Water solubility of the indoxyl glucoside is important for biological applications. […] Therefore, this compound is not suitable for bioconjugation. The synthesis of 34 relies on successive substitution of the dichloroanilinotriazine unit (derived from N,N-bis(2-methoxyethyl)aniline^31 and cyanuric chloride) with indoxyl-glucoside-PEG-OH and BCN-PEG-NH2 building blocks.
To improve the water solubility of the indoxyl species, a sulfobetaine unit^32,33 was incorporated as a water-solubilizing group. Sulfobetaines are stable zwitterions over a wide range of pH. Synthesis of an indoxyl bearing a sulfobetaine unit is illustrated in Scheme 6. Boc-piperazine (35) was treated with 1,3-propane sultone to afford 36 in 63% yield. Quaternization of the tertiary nitrogen atom in 36 with 3-bromopropanol gave Boc-protected sulfobetaine 37 in 69% yield. The Boc group was cleaved with trifluoroacetic acid (TFA) to afford piperazine-TFA salt 38 in 97% yield. The N-acetyl group of 32 was selectively deprotected with NaHCO3/MeOH in 84% yield. The product 39, piperazine-TFA salt 38, and BCN-amine 14 were assembled at a triazine ring via one-flask, successive substitution of cyanuric chloride to afford 40 in 51% yield. Cleavage of the acetyl groups of sulfobetaine 40 provided 41 in 98% yield.

β-glucosidase = assay: Treatment of F-9 with β-glucosidase; type: biochemical; settings: result in words
Description: Triazine-based A2BC architectures. Cyanuric chloride (F-8) was treated with 2 equiv of F-7 followed by tyramine to afford F-9 in 56% yield (Scheme 17). […] Treatment of N-(6-hydroxyhexyl)maleimide (F-10) (K. A. Keller, et al., Tetrahedron Lett., 2005, 46, 1181-1184. “A Thermally-Cleavable Linker for Solid-Phase Synthesis”) with cyanuric chloride (F-8) followed by F-9 in the presence of bases gave F-11 in 77% yield. […] While F-9 and F-11 were attractive from a synthetic standpoint given the ability to derivatize the 5-hydroxy group of the indoxyl unit without protection of the four hydroxy groups of the glucosyl unit, the reaction with a β-glucosidase was sine qua non in the molecular design. Accordingly, we moved to the design of a more suitable architecture.

With `COc1nc(Oc2ccc3[nH]cc(O[C@@H]4O[C@H](CO)[C@@H](O)[C@H](O)[C@H]4O)c3c2)nc(N2CCOCC2)n1` [Compound 19, 5-[(4-Methoxy-6-morpholino-1,3,5-triazin-2-yl)oxy]-1H-indole-3-yl β-D-glucopyranoside] the “Indigoid dye formation with tritosomes” value (tritosomes; result in words) was “low yield” and the “Yield (%) β-glucosidase from almonds” value ([1]; indoxyl 1 mM, enzyme 1 unit/mL, 0.01M acetate buffer pH 5, 5% DMF, 37° C., 16-19 h, ϵ = 1.27 × 10^4 M^−1 cm^−1 measured for 4) was <1%.
With `OCCOCCOCCOc1c(Br)cc2[nH]cc(O[C@@H]3O[C@H](CO)[C@@H](O)[C@H](O)[C@H]3O)c2c1Br` [Compound 33, 4,6-Dibromo-5-[1-hydroxy-3,6,9-trioxanon-9-yl]-1H-indol-3-yl β-D-glucopyranoside] the “Yield of indigoid dye” value ([2]; pH 6-9, 3 h, in words) was “High to quantitative yields”, the “Yield of indigoid dye” value ([2]; phosphate buffer pH 4, 3 h) was 6% and the “Yield of indigoid dye” value ([2]; phosphate buffer pH 5, 3 h) was 38%. For the same compound, the “Yield (%) β-glucosidase from Agrobacterium” value [2] was 99%, the “Isolated yield of indigo 43” value ([1]; 5-mg scale reaction of 33, acetate buffer pH 5.0, 37° C., 22 h) was 66% and the “Yield (%) β-glucosidase from almonds” value ([1]; as E1 but ϵ = 2.6 × 10^4 M^−1 cm^−1 measured for 43) was 52% and 52^g %. For the same compound, the “Yield (%) rat liver homogenate” value (rat liver homogenate) was < 5% and the “Yield (%) β-glucosidase from Agrobacterium plus rat liver homogenate” value [3] was 81%.
With `O=C(NCCOCCOCCNc1nc(OCCOCCOCCOc2c(Br)cc3[nH]cc(O[C@@H]4O[C@H](CO)[C@@H](O)[C@H](O)[C@H]4O)c3c2Br)nc(N2CC[N+](CCCO)(CCCS(=O)(=O)[O-])CC2)n1)OC[C@@H]1[C@@H]2CCC#CCC[C@@H]21` [Compound 41] the “Yield (%) β-glucosidase from Agrobacterium” value [2] was 106% and 106 ± 4^g % and the solubility [4] was > 400 µM.
In the case of `OC[C@H]1O[C@@H](Oc2c[nH]c3ccc(Oc4nc(NCCc5ccc(O)cc5)nc(Oc5ccc6[nH]cc(O[C@@H]7O[C@H](CO)[C@@H](O)[C@H](O)[C@H]7O)c6c5)n4)cc23)[C@H](O)[C@@H](O)[C@@H]1O` [Compound F-9, 2,4-Bis[3-(β-D-glucopyranosyloxy)-1H-indol-5-yloxy]-6-[2-(4-hydroxyphenyl)ethylamino]-1,3,5-triazine], the “Indigoid dye formation upon treatment with β-glucosidase” value (β-glucosidase) is reported as “did not form the corresponding indigoid dye” and the “Yield of indigoid dye with tritosomes” value (tritosomes) is reported as “ca. 4%”.
